Experimental data from ChEMBL document CHEMBL3046197, “Relation between Penetration Rates of Pesticides and Partition Coefficients in Topical Application to Spodoptera litura” (J Pestic Sci, 2001).

Legend:
Spodoptera litura [1] = assay: Drug uptake in Spodoptera litura assessed as recovered drug level 0.2 ug/insect after 8 hr; type: ADME, organism-based; details: in vivo
Spodoptera litura [2] = assay: Drug uptake in Spodoptera litura assessed as unchanged drug level 0.2 ug/insect after 8 hr; type: ADME, organism-based; details: in vivo
[3] = Octanol-water partition coefficient, log P of the compound by shake-flask method; type: physicochemical
Spodoptera litura [4] = assay: Drug uptake in Spodoptera litura assessed as penetrated drug level 0.2 ug/insect after 16 hr; type: ADME, organism-based; details: in vivo
Spodoptera litura [5] = assay: Drug uptake in Spodoptera litura assessed as surface residue level 0.2 ug/insect after 8 hr; type: ADME, organism-based; details: in vivo
Spodoptera litura [6] = assay: Drug uptake in Spodoptera litura assessed as surface residue level 0.2 ug/insect after 16 hr; type: ADME, organism-based; details: in vivo, topical_or_ocular
Spodoptera litura [7] = assay: Drug uptake in Spodoptera litura assessed as penetrated drug level 0.2 ug/insect after 8 hr; type: ADME, organism-based; details: in vivo
Spodoptera litura [8] = assay: Drug uptake in Spodoptera litura assessed as recovered drug level 0.2 ug/insect after 16 hr; type: ADME, organism-based; details: in vivo
Spodoptera litura [9] = assay: Drug uptake in Spodoptera litura assessed as penetrated drug level 0.2 ug/insect after 3 hr; type: ADME, organism-based; details: in vivo
Spodoptera litura [10] = assay: Drug uptake in Spodoptera litura assessed as unchanged drug level 0.2 ug/insect after 3 hr; type: ADME, organism-based; details: in vivo
Spodoptera litura [11] = assay: Drug uptake in Spodoptera litura assessed as recovered drug level 0.2 ug/insect after 3 hr; type: ADME, organism-based; details: in vivo
Spodoptera litura [12] = assay: Drug uptake in Spodoptera litura assessed as surface residue level 0.2 ug/insect after 3 hr; type: ADME, organism-based; details: in vivo
Spodoptera litura [13] = assay: Drug uptake in Spodoptera litura assessed as unchanged drug level 0.2 ug/insect after 0.5 hr; type: ADME, organism-based; details: in vivo
Spodoptera litura [14] = assay: Drug uptake in Spodoptera litura assessed as recovered drug level 0.2 ug/insect after 0.5 hr; type: ADME, organism-based; details: in vivo
Spodoptera litura [15] = assay: Drug uptake in Spodoptera litura assessed as penetrated drug level 0.2 ug/insect after 1 hr; type: ADME, organism-based; details: in vivo
Spodoptera litura [16] = assay: Drug uptake in Spodoptera litura assessed as recovered drug level 0.2 ug/insect after 1 hr; type: ADME, organism-based; details: in vivo
Spodoptera litura [17] = assay: Drug uptake in Spodoptera litura assessed as penetrated drug level 0.2 ug/insect after 0.5 hr; type: ADME, organism-based; details: in vivo
Spodoptera litura [18] = assay: Drug uptake in Spodoptera litura assessed as surface residue level 0.2 ug/insect after 0.5 hr; type: ADME, organism-based; details: in vivo, topical_or_ocular
Spodoptera litura [19] = assay: Drug uptake in Spodoptera litura assessed as surface residue level 0.2 ug/insect after 1 hr; type: ADME, organism-based; details: in vivo
Spodoptera litura [20] = assay: Drug uptake in Spodoptera litura assessed as surface residue level 0.2 ug/insect after 6 hr; type: ADME, organism-based; details: in vivo
Spodoptera litura [21] = assay: Drug uptake in Spodoptera litura assessed as recovered drug level 0.2 ug/insect after 6 hr; type: ADME, organism-based; details: in vivo
Spodoptera litura [22] = assay: Drug uptake in Spodoptera litura assessed as penetrated drug level 0.2 ug/insect after 6 hr; type: ADME, organism-based; details: in vivo
Spodoptera litura [23] = assay: Drug uptake in Spodoptera litura assessed as unchanged drug level 0.2 ug/insect after 1 hr; type: ADME, organism-based; details: in vivo
Spodoptera litura [24] = assay: Drug uptake in Spodoptera litura assessed as unchanged drug level 0.2 ug/insect after 2 hr; type: ADME, organism-based; details: in vivo
Spodoptera litura [25] = assay: Drug uptake in Spodoptera litura assessed as penetrated drug level 0.2 ug/insect after 4 hr; type: ADME, organism-based; details: in vivo
Spodoptera litura [26] = assay: Drug uptake in Spodoptera litura assessed as surface residue level 0.2 ug/insect after 4 hr; type: ADME, organism-based; details: in vivo
Spodoptera litura [27] = assay: Drug uptake in Spodoptera litura assessed as surface residue level 0.2 ug/insect after 2 hr; type: ADME, organism-based; details: in vivo
Spodoptera litura [28] = assay: Drug uptake in Spodoptera litura assessed as recovered drug level 0.2 ug/insect after 4 hr; type: ADME, organism-based; details: in vivo
Spodoptera litura [29] = assay: Drug uptake in Spodoptera litura assessed as penetrated drug level 0.2 ug/insect after 2 hr; type: ADME, organism-based; details: in vivo
Spodoptera litura [30] = assay: Drug uptake in Spodoptera litura assessed as recovered drug level 0.2 ug/insect after 2 hr; type: ADME, organism-based; details: in vivo
Spodoptera litura [31] = assay: Drug uptake in Spodoptera litura assessed as recovered drug level 0.2 ug/insect after 24 hr; type: ADME, organism-based; details: in vivo
Spodoptera litura [32] = assay: Drug uptake in Spodoptera litura assessed as surface residue level 0.2 ug/insect after 24 hr; type: ADME, organism-based; details: in vivo, topical_or_ocular
Spodoptera litura [33] = assay: Drug uptake in Spodoptera litura assessed as unchanged drug level 0.2 ug/insect after 4 hr; type: ADME, organism-based; details: in vivo
Spodoptera litura [34] = assay: Drug uptake in Spodoptera litura assessed as penetrated drug level 0.2 ug/insect after 24 hr; type: ADME, organism-based; details: in vivo

CC(C)=C[C@@H]1[C@@H](C(=O)OCN2C(=O)C3=C(CCCC3)C2=O)C1(C)C [(1R)-TRANS-TETRAMETHRIN]
Drug recovery (Spodoptera litura [1]): 84.9% | Drug uptake (Spodoptera litura [2]): 60.3% | logP [3]: 4.73 | Drug uptake (Spodoptera litura [4]): 35.2% | Drug uptake (Spodoptera litura [5]): 63.7% | Drug uptake (Spodoptera litura [6]): 44.9% | Drug uptake (Spodoptera litura [7]): 21.2% | Drug recovery (Spodoptera litura [8]): 80.1%

CCOP(=S)(Oc1ccc(C#N)cc1)c1ccccc1 (centres undefined) [CYANOFENPHOS]
Drug recovery (Spodoptera litura [1]): 96% | Drug uptake (Spodoptera litura [9]): 56.5% | Drug uptake (Spodoptera litura [5]): 11.3% | Drug uptake (Spodoptera litura [10]): 37.4% | Drug uptake (Spodoptera litura [7]): 84.6% | Drug recovery (Spodoptera litura [11]): 96.4% | Drug uptake (Spodoptera litura [12]): 39.9%

COP(=O)(OC)Oc1ccc(C#N)cc1 [CYANOPHOS-OXON]
logP [3]: 0.84 | Drug uptake (Spodoptera litura [13]): 29.3% | Drug recovery (Spodoptera litura [14]): 89.9% | Drug uptake (Spodoptera litura [15]): 65.5% | Drug recovery (Spodoptera litura [16]): 96.7% | Drug uptake (Spodoptera litura [17]): 55.4% | Drug uptake (Spodoptera litura [18]): 34.5% | Surface residue (Spodoptera litura [19]): 31.2%

COP(=S)(OC)Oc1ccc(C#N)cc1 [CYANOPHOS]
logP [3]: 2.65 | Drug uptake (Spodoptera litura [20]): 8.1% | Drug uptake (Spodoptera litura [15]): 39.2% | Drug recovery (Spodoptera litura [16]): 76.6% | Drug recovery (Spodoptera litura [21]): 80.9% | Drug uptake (Spodoptera litura [22]): 72.8% | Drug uptake (Spodoptera litura [23]): 34.3% | Surface residue (Spodoptera litura [19]): 37.4%

CCOc1ccc(NC(=O)OC(C)C)cc1OCC [DIETHENOFENCARB]
Drug uptake (Spodoptera litura [9]): 31.9% | logP [3]: 3.02 | Drug uptake (Spodoptera litura [4]): 63.5% | Drug uptake (Spodoptera litura [6]): 18.1% | Drug uptake (Spodoptera litura [10]): 52.6% | Drug recovery (Spodoptera litura [8]): 81.7% | Drug recovery (Spodoptera litura [11]): 88.5% | Drug uptake (Spodoptera litura [12]): 56.6%

COP(=S)(OC)Oc1ccc([N+](=O)[O-])c(C)c1 [FENITROTHION]
Drug uptake (Spodoptera litura [20]): 10.8% | Drug uptake (Spodoptera litura [15]): 51.2% | Drug recovery (Spodoptera litura [16]): 94.8% | Drug recovery (Spodoptera litura [21]): 81.8% | Drug uptake (Spodoptera litura [22]): 71% | Drug uptake (Spodoptera litura [23]): 40.9% | Surface residue (Spodoptera litura [19]): 43.6%

COP(=O)(OC)Oc1ccc([N+](=O)[O-])c(C)c1 [FENITROXON]
Drug uptake (Spodoptera litura [9]): 62.4% | Drug uptake (Spodoptera litura [13]): 42.7% | Drug recovery (Spodoptera litura [14]): 96.4% | Drug uptake (Spodoptera litura [17]): 51.5% | Drug recovery (Spodoptera litura [11]): 87.8% | Drug uptake (Spodoptera litura [18]): 44.9% | Drug uptake (Spodoptera litura [12]): 25.3%

CC1(C)C(C(=O)OC(C#N)c2cccc(Oc3ccccc3)c2)C1(C)C (centres undefined) [FENPROPATHRIN]
Drug uptake (Spodoptera litura [24]): 66.5% | Drug uptake (Spodoptera litura [25]): 13.1% | Drug uptake (Spodoptera litura [26]): 69.2% | logP [3]: 6 | Drug uptake (Spodoptera litura [27]): 68.8% | Drug recovery (Spodoptera litura [28]): 82.3% | Drug uptake (Spodoptera litura [29]): 22% | Drug recovery (Spodoptera litura [30]): 90.8%

CCOP(=S)(OCC)Oc1ccc([N+](=O)[O-])cc1 [PARATHION]
Drug uptake (Spodoptera litura [20]): 10.9% | Drug uptake (Spodoptera litura [15]): 35% | Drug recovery (Spodoptera litura [16]): 95.6% | Drug recovery (Spodoptera litura [21]): 89.8% | Drug uptake (Spodoptera litura [22]): 78.9% | Drug uptake (Spodoptera litura [23]): 56.8% | Surface residue (Spodoptera litura [19]): 60.6%

CC(COc1ccc(Oc2ccccc2)cc1)Oc1ccccn1 (centres undefined) [PYRIPROXYFEN]
Drug recovery (Spodoptera litura [31]): 84% | Drug uptake (Spodoptera litura [25]): 40.3% | Drug uptake (Spodoptera litura [26]): 56.4% | logP [3]: 5.31 | Drug recovery (Spodoptera litura [28]): 96.7% | Drug uptake (Spodoptera litura [32]): 7.6% | Drug uptake (Spodoptera litura [33]): 55.3% | Drug uptake (Spodoptera litura [34]): 76.4%

CC(C)(C)N(NC(=O)c1ccccc1)C(=O)c1ccccc1 [RH-5849]
Drug recovery (Spodoptera litura [2]): 38.4% | Drug uptake (Spodoptera litura [5]): 52.3% | Drug uptake (Spodoptera litura [32]): 50.2%
